Reference: patent publication US8361968B2 (Takeda Pharmaceutical Company Limited, priority 2002, dated 2013)
Read-outs that look alike come from different tables or passages of the source. Square brackets hold non-standard residues; d marks the D form. Peptide text beside a SMILES is read from it. Arg(Me) = CNC(=N)NCCC[C@H](N)C(=O)O; 4Pal = N[C@@H](Cc1ccncc1)C(=O)O; azaGly = NNC(=O)O

What was measured:
[1] = Stability of compound in blood (mouse serum, half life); conditions: female, Balb/c
Method: (§1) Blood was drawn from Balb/c mice (female) of 8 weeks old, settled at 37° C. for 30 minutes and centrifuged at 13000 rpm for 10 minutes to give the serum as the supernatant. The serum thus obtained was frozen-stored at −80° C.
(§2) The stability test was performed by addition of 5 nmol of Compound (5 μL of aqueous solution) to 45 μL of serum and then settlement of the mixture at 37° C. The settlement was made at 3 points of time, including 2, 10 and 30 minutes. The sample after the settlement was boiled for 3 minutes and cooled on an ice bath. After 200 μL of acetonitrile/water (3/1) was added to the sample, the mixture was ultrasonicated for 5 minutes and then centrifuged at 5000 rpm for 1 minute. After 150 μL of the supernatant was diluted with 250 μL of distilled water, insoluble matters were removed by filtration through a filter having a pore size of 0.45 μm and 200 μL of the filtrate was applied on HPLC (220 nm) to determine the peak area of Compound. A ratio of the peak area to the area when Compound was treated for 0 minute under the same conditions was calculated as a mean value in 4 respective runs to determine the residual ratio. Next, by taking the calculated residual ratio on the ordinate and the time on the abscissa, a graph was prepared and approximated by an exponential function.
(§3) The preparative HPLC used was the LC-VP series manufactured by Shimadzu Corporation and Wakosil-II 5C18 HG (4.6 mm×100 mm) manufactured by Wako Pure Chemical Industries, Ltd. was used as the column. Eluant A (0.1% TFA-containing water) and eluant B (0.1% TFA-containing acetonitrile) were used as eluants. Analysis was performed by linear density gradient elution (25 minutes) at a flow rate of 1.0 ml/min. using eluants A/B: 100/0-0/50.

[2] = biological target: T1, hOT7T175 (Homo sapiens, UniProt Q969F8, L364H); test: Intracellular Ca ion level-increasing activity using FLIPR in hOT7T175/CHO; type: cell-based; parameters: expressed in transfected cells; host or cells: CHO/dhfr- cells, obtained from ATCC; conditions: relative, Metastin (1-54) = 1
T1 sequence (Q969F8 whole entry L364H): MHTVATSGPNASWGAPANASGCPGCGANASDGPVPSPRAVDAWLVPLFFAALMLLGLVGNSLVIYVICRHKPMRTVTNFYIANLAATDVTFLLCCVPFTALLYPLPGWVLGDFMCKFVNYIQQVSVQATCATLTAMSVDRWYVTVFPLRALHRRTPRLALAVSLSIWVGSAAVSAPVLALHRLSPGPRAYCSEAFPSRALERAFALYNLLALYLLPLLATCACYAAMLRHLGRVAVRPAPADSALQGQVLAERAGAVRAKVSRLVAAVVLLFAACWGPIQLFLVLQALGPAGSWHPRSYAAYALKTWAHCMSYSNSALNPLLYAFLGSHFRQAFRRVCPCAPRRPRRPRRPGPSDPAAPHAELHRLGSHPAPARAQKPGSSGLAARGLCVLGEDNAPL

[3] = system: hOT7T175-expressed CHO cells; type: cell-based
Method: Assay for Cell Growth Inhibition Activity in hOT7T175-Expressed Cho Cells hOT7T175-Expressed CHO cells (hereinafter hOT7T175) were cultured in DMEM supplemented with 10% dialyzed FBS (hereinafter 10% dFBS/DMEM), which was used for the following assay. The hOT7T175 was suspended in 10% dFBS/DMEM at 10,000 cells/ml. The cells were plated on a 96 well plate at 100 μL each/well (1,000 cells/well), followed by culturing overnight at 37° C. in a 5% CO2 incubator. On the following day, the medium was removed and 90 μL of 10% dFBS/DMEM supplemented with 0.5% BSA (hereinafter, 0.5% BSA/10% dFBS/DMEM) was added. […] After 10 μL of Cell Counting Kit-8 solution (Dojin Chemical Laboratory) was added to each well, incubation was performed at 37° C. in a 5% CO2 incubator for 4 hours and absorbance was measured at 450 nm.

[4] = in vitro; conditions: female, Balb/c, mouse, serum
Method: as §1, §2, §3

[5] = biological target: T1, hOT7T175; test: hOT7T175 receptor binding activity: binding inhibition of Cy-5-labeled metastin (40-54) on hOT7T175-expressed CHO cells; parameters: expressed in transfected cells; host or cells: CHO cells

SMILES | half-life at 100 µM [1] | Specific Activity (intracellular Ca ion level-increasing activity) [2] | IC50 [3] | half-life at 100 µM [4] | IC50 [5] | IC50 ([3]; hOT7T175-expressed CHO cells, 3 days culture, Cell Counting Kit-8, read-out: IC50 (M), cell growth inhibition activity)
CC(C)C[C@H](NC(=O)CNC(=O)[C@H](Cc1ccccc1)NC(=O)[C@H](CO)NC(=O)[C@H](CC(N)=O)NC(=O)[C@H](Cc1c[nH]c2ccccc12)NC(=O)[C@H](CC(N)=O)NC(=O)[C@@H](N)Cc1ccc(O)cc1)C(=O)N[C@@H](CCCNC(=N)N)C(=O)N[C@@H](Cc1ccccc1)C(N)=O [Compound No. 3, reference compound] | 0.6 min | 10 | – | – | – | –
CNC(=N)NCCC[C@H](NC(=O)[C@H](CC(C)C)NC(=O)CNC(=O)[C@H](Cc1ccccc1)NC(=O)[C@H](CO)NC(=O)[C@H](CC(N)=O)NC(=O)[C@H](Cc1c[nH]c2ccccc12)NC(=O)[C@H](CC(N)=O)NC(=O)[C@H](N)Cc1ccc(O)cc1)C(=O)N[C@@H](Cc1ccccc1)C(N)=O [Compound No. 141] | – | 10 | 8.7e-08 M | 8.7 min | – | –
CNC(=N)NCCC[C@H](NC(=O)[C@H](CC(C)C)NC(=O)NNC(=O)[C@H](Cc1ccccc1)NC(=O)[C@H](CO)NC(=O)[C@H](CC(N)=O)NC(=O)[C@H](Cc1c[nH]c2ccccc12)NC(=O)[C@H](CC(N)=O)NC(=O)[C@H](N)Cc1ccc(O)cc1)C(=O)N[C@@H](Cc1ccccc1)C(N)=O [Compound No. 232, D-Tyr-Asn-Trp-Asn-Ser-Phe-AzaGly-Leu-Arg(Me)-Phe-NH2] | – | 3 | 9.67e-09 M | 28.2 min | 0.049 µM | –
CC(C)C[C@H](NC(=O)CNC(=O)[C@H](Cc1ccccc1)NC(=O)[C@H](CO)NC(=O)[C@H](CC(N)=O)NC(=O)[C@H](Cc1c[nH]c2ccccc12)NC(=O)[C@H](CC(N)=O)NC(=O)[C@H](N)Cc1ccc(O)cc1)C(=O)N[C@@H](CCCNC(=N)N)C(=O)N[C@@H](Cc1ccccc1)C(N)=O [Compound No. 42] | 0.7 min | 30 | – | – | – | –
CNC(=N)NCCC[C@H](NC(=O)[C@H](CC(C)C)NC(=O)NNC(=O)[C@H](Cc1ccccc1)NC(=O)[C@H](CO)NC(=O)[C@H](CC(N)=O)NC(=O)[C@H](Cc1ccncc1)NC(=O)[C@H](CC(N)=O)NC(=O)[C@H](N)Cc1ccc(O)cc1)C(=O)N[C@@H](Cc1ccccc1)C(N)=O [Compound No. 286, D-Tyr-Asn-Pya(4)-Asn-Ser-Phe-AzaGly-Leu-Arg(Me)-Phe-NH2] (H-[dY]N[4Pal]NSF[azaGly]L[Arg(Me)]F-NH2) | – | 2 | – | – | – | 1.83e-08 M
CNC(=N)NCCC[C@H](NC(=O)[C@H](CC(C)C)NC(=O)CC(=O)N[C@H](Cc1ccccc1)NC(=O)[C@H](CO)NC(=O)[C@H](CC(N)=O)NC(=O)[C@H](Cc1c[nH]c2ccccc12)NC(=O)[C@H](CC(N)=O)NC(=O)[C@H](N)Cc1ccc(O)cc1)C(=O)N[C@@H](Cc1ccccc1)C(N)=O [Compound No. 319, D-Tyr-Asn-Trp-Asn-Ser-PheΨ(NHCO)Gly-Leu-Arg(Me)-Phe-NH2] | 33 min | 3 | – | – | – | –
